In patent US20220213078A1, “MODULATORS OF THE INTEGRATED STRESS RESPONSE PATHWAY” (EVOTEC INTERNATIONAL GMBH, priority 2019, published 2022):
pIC50: −log10 of the molar value.

Each compound was assayed on Tunicamycin induced ISR (ATF4) in wild-type HEK293 cells (assay: HEK-ATF4 High Content Imaging assay (prevention of Tunicamycin induced ISR, ATF4 nucleus/cytoplasm signal ratio)). Conditions: Homo sapiens, 6 hrs incubation, ATF4 immunofluorescence.
Assay type: cell-based
Method: HEK-ATF4 High Content Imaging Assay
Example compounds were tested in the HEK-ATF4 High Content Imaging assay to assess their pharmacological potency to prevent Tunicamycin induced ISR. Wild-type HEK293 cells were plated in 384-well imaging assay plates at a density of 12,000 cells per well in growth medium (containing DMEM/F12, 10% FBS, 2 mM L-Glutamine, 100 U/mL Penicillin—100 μg/mL Streptomycin) and incubated at 37° C., 5% CO2. 24-hrs later, the medium was changed to 50 μl assay medium per well (DMEM/F12, 0.3% FBS, 2 mM L-Glutamine, 100 U/mL Penicillin—100 μg/mL Streptomycin). Example compounds were serially diluted in dimethyl sulfoxide (DMSO), spotted into intermediate plates and prediluted with assay medium containing 3.3 μM Tunicamycin to give an 11-fold excess of final assay concentration. In addition to the example compound testing area, the plates also contained multiples of control wells for assay normalization purposes, wells, containing Tunicamycin but no example compounds (High control), as well as wells containing neither example compound nor Tunicamycin (Low control). The assay was started by transferring 5 μl from the intermediate plate into the assay plates, followed by incubation for 6 hrs at 37° C., 5% CO2. Subsequently, cells were fixed (4% PFA in PBS, 20 min at room temperature) and submitted to indirect ATF4 immunofluorescence staining (primary antibody rabbit anti ATF4, clone D4B8, Cell Signaling Technologies; secondary antibody Alexa Fluor 488 goat anti-rabbit IgG (H+L), Thermofisher Scientific). Nuclei were stained using Hoechst dye (Thermofisher Scientific), and plates were imaged on an Opera Phenix High Content imaging platform equipped with 405 nm and 488 nm excitation. Finally, images were analyzed using script based algorithms. The main readout HEK-ATF4 monitored the ATF4 signal ratio between nucleus and cytoplasm. Tunicamycin induced an increase in the overall ATF4 ratio signal, which was prevented by ISR modulating example compounds. In addition, HEK-CellCount readout was derived from counting the number of stained nuclei corresponding to healthy cells. This readout served as an internal toxicity control.

Row | Compound | pIC50
1 | O=C(COc1ccc(Cl)c(F)c1)N[C@@H]1CC[C@@H](c2nnc(-c3ccc(Cl)cc3)o2)OC1 [Example 1, 2-(4-chloro-3-fluoro-phenoxy)-N-[(3R,6S)-6-[5-(4-chlorophenyl)-1,3,4-oxadiazol-2-yl]tetrahydropyran-3-yl]acetamide] | 6.30 to 9.00
2 | O=C(COc1ccc(Cl)cc1)N[C@@H]1CC[C@@H](c2nnc(-c3ccc(Cl)cc3)o2)OC1 [Example 2, 2-(4-chlorophenoxy)-N-[(3R,6S)-6-[5-(4-chlorophenyl)-1,3,4-oxadiazol-2-yl]oxan-3-yl]acetamide] | 6.30 to 9.00
3 | O=C(COc1ccc(Cl)c(F)c1)N[C@@H]1CC[C@@H](c2nnc(-c3ccc(C(F)(F)F)nc3)o2)OC1 [Example 3, 2-(4-chloro-3-fluorophenoxy)-N-[(3R,6S)-6-{5-[6-(trifluoromethyl)pyridin-3-yl]-1,3,4-oxadiazol-2-yl}oxan-3-yl]acetamide] | 6.30 to 9.00
4 | O=C(COc1ccc(Cl)c(F)c1)N[C@H]1CC[C@H](c2nnc(-c3ccc(Cl)cc3)o2)OC1 [Example 4, 2-(4-chloro-3-fluorophenoxy)-N-[(3S,6R)-6-[5-(4-chlorophenyl)-1,3,4-oxadiazol-2-yl]oxan-3-yl]acetamide] | 6.30 to 9.00
5 | O=C(COc1ccc(Cl)c(F)c1)N[C@@H]1CC[C@@H](c2nnc(-c3ccc(C4CC4)nc3)o2)OC1 [Example 5, 2-(4-chloro-3-fluorophenoxy)-N-[(3R,6S)-6-[5-(6-cyclopropylpyridin-3-yl)-1,3,4-oxadiazol-2-yl]oxan-3-yl]acetamide] | 6.30 to 9.00
6 | CCc1ccc(-c2nnc([C@@H]3CC[C@@H](NC(=O)COc4ccc(Cl)c(F)c4)CO3)o2)cn1 [Example 6, 2-(4-chloro-3-fluorophenoxy)-N-[(3R,6S)-6-[5-(6-ethylpyridin-3-yl)-1,3,4-oxadiazol-2-yl]oxan-3-yl]acetamide] | 5.70 to 6.30
7 | O=C(COc1cnc(Cl)c(F)c1)N[C@@H]1CC[C@@H](c2nnc(-c3ccc(Cl)cc3)o2)OC1 [Example 7, 2-[(6-chloro-5-fluoropyridin-3-yl)oxy]-N-[(3R,6S)-6-[5-(4-chlorophenyl)-1,3,4-oxadiazol-2-yl]oxan-3-yl]acetamide] | 6.30 to 9.00
8 | O=C(COc1ccnc(C(F)(F)F)c1)N[C@@H]1CC[C@@H](c2nnc(-c3ccc(Cl)cc3)o2)OC1 [Example 8, N-[(3R,6S)-6-[5-(4-chlorophenyl)-1,3,4-oxadiazol-2-yl]oxan-3-yl]-2-{[2-(trifluoromethyl)pyridin-4-yl]oxy}acetamide] | 5.70 to 6.30
9 | O=C(COc1ccc(Cl)nc1)N[C@@H]1CC[C@@H](c2nnc(-c3ccc(Cl)cc3)o2)OC1 [Example 9, N-[(3R,6S)-6-[5-(4-chlorophenyl)-1,3,4-oxadiazol-2-yl]oxan-3-yl]-2-[(6-chloropyridin-3-yl)oxy]acetamide] | 6.30 to 9.00
10 | Cc1ncc(OCC(=O)N[C@@H]2CC[C@@H](c3nnc(-c4ccc(Cl)cc4)o3)OC2)cc1F [Example 10, N-[(3R,6S)-6-[5-(4-chlorophenyl)-1,3,4-oxadiazol-2-yl]oxan-3-yl]-2-[(5-fluoro-6-methylpyridin-3-yl)oxy]acetamide] | 5.70 to 6.30
11 | O=C(COc1cnc(Cl)c(F)c1)N[C@@H]1CC[C@@H](c2nnc(-c3ccc(Cl)nc3)o2)OC1 [Example 11, 2-[(6-chloro-5-fluoropyridin-3-yl)oxy]-N-[(3R,6S)-6-[5-(6-chloropyridin-3-yl)-1,3,4-oxadiazol-2-yl]oxan-3-yl]acetamide] | 4.82 to 5.70
12 | Cc1ccc(OCC(=O)N[C@@H]2CC[C@@H](c3nnc(-c4ccc(Cl)cc4)o3)OC2)cn1 [Example 12, N-[(3R,6S)-6-[5-(4-chlorophenyl)-1,3,4-oxadiazol-2-yl]oxan-3-yl]-2-[(6-methylpyridin-3-yl)oxy]acetamide] | 4.82 to 5.70
13 | O=C(COc1cnc(Cl)cn1)N[C@@H]1CC[C@@H](c2nnc(-c3ccc(Cl)cc3)o2)OC1 [Example 13, N-[(3R,6S)-6-[5-(4-chlorophenyl)-1,3,4-oxadiazol-2-yl]oxan-3-yl]-2-[(5-chloropyrazin-2-yl)oxy]acetamide] | 5.70 to 6.30
14 | O=C(COc1cnc(Cl)nc1)N[C@@H]1CC[C@@H](c2nnc(-c3ccc(Cl)cc3)o2)OC1 [Example 14, N-[(3R,6S)-6-[5-(4-chlorophenyl)-1,3,4-oxadiazol-2-yl]oxan-3-yl]-2-[(2-chloropyrimidin-5-yl)oxy]acetamide] | 5.70 to 6.30
15 | Cc1ncc(OCC(=O)N[C@@H]2CC[C@@H](c3nnc(-c4ccc(Cl)cc4)o3)OC2)cc1Cl [Example 15, 2-[(5-chloro-6-methylpyridin-3-yl)oxy]-N-[(3R,6S)-6-[5-(4-chlorophenyl)-1,3,4-oxadiazol-2-yl]oxan-3-yl]acetamide] | 6.30 to 9.00
16 | O=C(COc1ccc(Cl)c(F)c1)N[C@@H]1CC[C@@H](c2nnc(-c3cncc(C(F)(F)F)c3)o2)OC1 [Example 16, 2-(4-chloro-3-fluorophenoxy)-N-[(3R,6S)-6-{5-[5-(trifluoromethyl)pyridin-3-yl]-1,3,4-oxadiazol-2-yl}oxan-3-yl]acetamide] | 5.70 to 6.30
17 | O=C(COc1ccc(Cl)c(F)c1)N[C@@H]1CC[C@@H](c2nnc(-c3ccnc(C(F)(F)F)c3)o2)OC1 [Example 17, 2-(4-chloro-3-fluorophenoxy)-N-[(3R,6S)-6-{5-[2-(trifluoromethyl)pyridin-4-yl]-1,3,4-oxadiazol-2-yl}oxan-3-yl]acetamide] | 6.30 to 9.00
18 | O=C(COc1ccc(C(F)(F)F)nc1)N[C@@H]1CC[C@@H](c2nnc(-c3ccc(Cl)cc3)o2)OC1 [Example 18] | 6.30 to 9.00
19 | O=C(COc1cncc(C(F)(F)F)c1)N[C@@H]1CC[C@@H](c2nnc(-c3ccc(Cl)cc3)o2)OC1 [Example 19, N-[(3R,6S)-6-[5-(4-chlorophenyl)-1,3,4-oxadiazol-2-yl]oxan-3-yl]-2-{[5-(trifluoromethyl)pyridin-3-yl]oxy}acetamide] | 5.70 to 6.30
